According to paper PMC9917560, “Design, Synthesis and Antimicrobial Evaluation of New N-(1-Hydroxy-1,3-dihydrobenzo[c][1,2]oxaborol-6-yl)(hetero)aryl-2-carboxamides as Potential Inhibitors of Mycobacterial Leucyl-tRNA Synthetase” (International Journal of Molecular Sciences, 2023):
pIC50: −log10 of the molar value. Values after ≈ are worked out from the molar mass of the structure shown. Like-named read-outs stand apart in the source and are kept apart here.

Experiments:
[1] = system: Mycobacterium tuberculosis H37Rv CNCTC My 331/88 (ATCC 27294); assay: Microplate Alamar Blue assay vs Mtb H37Rv; format: cell-based; details: Mycobacterium tuberculosis
[2] = system: Aspergillus fumigatus ATCC 204305; assay: Antifungal microdilution broth (EUCAST); format: cell-based; details: Aspergillus fumigatus, ATCC204305, read-out: MIC Aspergillus fumigatus
[3] = system: Enterococcus faecalis CCM 4224 (ATCC 29212); assay: Antibacterial microdilution broth (EUCAST); format: cell-based; details: read-out: MIC Enterococcus faecalis
[4] = system: Staphylococcus epidermidis CCM 4418 (ATCC 12228); assay: Antibacterial microdilution broth (EUCAST); format: cell-based; details: read-out: MIC Staphylococcus epidermidis
[5] = system: Mycobacterium kansasii DSM 44,162 (ATCC 12478); assay: Antimycobacterial microdilution (resazurin) vs M. kansasii; format: cell-based; details: Middlebrook 7H9, resazurin, read-out: MIC M. kansasii
[6] = system: Klebsiella pneumoniae CCM 4415 (ATCC 10031); assay: Antibacterial microdilution broth (EUCAST); format: cell-based; details: for MIC: Klebsiella pneumoniae, read-out: MIC Klebsiella pneumoniae
[7] = system: Mycolicibacterium smegmatis DSM 43,465 (ATCC 607); assay: Antimycobacterial microdilution (resazurin) vs M. smegmatis; format: cell-based; details: Middlebrook 7H9, resazurin, read-out: MIC M. smeg.
[8] = system: Acinetobacter baumannii DSM 30007 (ATCC 19606); assay: Antibacterial microdilution broth (EUCAST); format: cell-based; details: read-out: MIC Acinetobacter baumannii
[9] = system: Mycolicibacterium aurum DSM 43,999 (ATCC 23366); assay: Antimycobacterial microdilution (resazurin) vs M. aurum; format: cell-based; details: Middlebrook 7H9, resazurin, read-out: MIC M. aurum
[10] = system: Candida albicans CCM 8320 (ATCC 24433); assay: Antifungal microdilution broth (EUCAST); format: cell-based; details: Candida albicans, read-out: MIC Candida albicans
[11] = system: Lichtheimia corymbifera CCM 8077; assay: Antifungal microdilution broth (EUCAST); format: cell-based; details: Lichtheimia corymbifera, CCM8077, read-out: MIC Lichtheimia corymbifera
[12] = system: Escherichia coli CCM 3954 (ATCC 25922); assay: Antibacterial microdilution broth (EUCAST); format: cell-based; details: for MIC: Escherichia coli, read-out: MIC Escherichia coli
[13] = system: Candida parapsilosis CCM 8260 (ATCC 22019); assay: Antifungal microdilution broth (EUCAST); format: cell-based; details: Lodderomyces parapsilosis, read-out: MIC Candida parapsilosis
[14] = system: Pseudomonas aeruginosa CCM 3955 (ATCC 27853); assay: Antibacterial microdilution broth (EUCAST); format: cell-based; details: read-out: MIC Pseudomonas aeruginosa
[15] = system: methicillin-resistant Staphylococcus aureus subsp. aureus (MRSA) CCM 4750 (ATCC 43300); assay: microbe, parasite or virus in culture; format: cell-based; details: read-out: MIC Methicillin-resistant Staphylococcus aureus subsp. aureus
[16] = system: Candida krusei CCM 8271 (ATCC 6258); assay: Antifungal microdilution broth (EUCAST); format: cell-based; details: Pichia kudriavzevii, read-out: MIC Candida krusei
[17] = system: HepG2 cell line; assay: Cytotoxicity screening, CellTiter 96 assay; details: for pIC50: Homo sapiens, HepG2, 24 h, read-out: IC50 HepG2
[18] = system: Trichophyton interdigitale CCM 8377 (ATCC 9533); assay: Antifungal microdilution broth (EUCAST); format: cell-based; details: Trichophyton interdigitale, read-out: MIC Trichophyton interdigitale
[19] = system: Mycobacterium tuberculosis H37Ra ITM-M006710 (ATCC 9431); assay: Antimycobacterial microdilution (resazurin) vs Mtb H37Ra; format: cell-based
[20] = system: Staphylococcus aureus subsp. aureus CCM 4223 (ATCC 29213); assay: Antibacterial microdilution broth (EUCAST); format: cell-based; details: read-out: MIC Staphylococcus aureus subsp. aureus
[21] = system: Mycobacterium avium DSM 44,156 (ATCC 25291); assay: Antimycobacterial microdilution (resazurin) vs M. avium; format: cell-based; details: Mycobacterium avium
[22] = system: Aspergillus flavus CCM 8363; assay: Antifungal microdilution broth (EUCAST); format: cell-based; details: Aspergillus flavus, CCM8363, read-out: MIC Aspergillus flavus
[23] = system: Candida tropicalis CCM 8264 (ATCC 750); assay: Antifungal microdilution broth (EUCAST); format: cell-based; details: read-out: MIC Candida tropicalis
[24] = pH 6.6, MABA, Middlebrook 7H9 pH 6.6, recalculated from µg/mL, read-out: MIC Mtb H37Rv
[25] = Middlebrook 7H9, resazurin, recalculated from µg/mL, read-out: MIC Mtb H37Ra
[26] = Middlebrook 7H9, resazurin, read-out: MIC M. avium

## Cc1nccnc1C(=O)Nc1ccc2c(c1)B(O)OC2 [Compound 3, N-(1-hydroxy-1,3-dihydrobenzo[c][1,2]oxaborol-6-yl)-3-methylpyrazine-2-carboxamide]
[1]; pH 6.6, read-out: MIC Mtb H37Rv, MABA, Middlebrook 7H9 pH 6.6, recalculated from µg/mL
  MIC: 92.9 µM (≈ 25 µg/mL)
[2]; 24h incubation
  MIC: > 500 µM
[2]; 48h incubation
  MIC: > 500 µM
[3]; 24h incubation
  MIC: > 500 µM
[3]; 48h incubation
  MIC: > 500 µM
[4]; 24h incubation
  MIC: > 500 µM
[4]; 48h incubation
  MIC: > 500 µM
[5]
  MIC: 58.1 µM (≈ 15.6 µg/mL)
[6]; 24h incubation
  MIC: > 500 µM
[6]; 48h incubation
  MIC: > 500 µM
[7]
  MIC: 14.5 µM (≈ 3.91 µg/mL)
[8]; 24h incubation
  MIC: > 500 µM
[8]; 48h incubation
  MIC: > 500 µM
[9]
  MIC: 14.5 µM (≈ 3.91 µg/mL)
[10]; 24h incubation
  MIC: > 500 µM
[10]; 48h incubation
  MIC: > 500 µM
other
  melting point: 262.9 to 264 °C
[11]; 24h incubation
  MIC: > 500 µM
[11]; 48h incubation
  MIC: > 500 µM
[12]; 24h incubation
  MIC: > 500 µM
[12]; 48h incubation
  MIC: > 500 µM
[13]; 24h incubation
  MIC: > 500 µM
[13]; 48h incubation
  MIC: > 500 µM
[14]; 24h incubation
  MIC: > 500 µM
[14]; 48h incubation
  MIC: > 500 µM
[15]; 24 h
  MIC: > 500 µM
[15]; 48 h
  MIC: > 500 µM
[16]; 24h incubation
  MIC: > 500 µM
[16]; 48h incubation
  MIC: > 500 µM
[17]
  pIC50: < 3.30
[17]; tested up to 500 µM (2, 3), 250 µM (12, 17), 100 µM (6, 7, 11) because of solubility
  toxicity to HepG2 up to highest tested concentration: non-toxic
[18]; 72h incubation
  MIC: > 500 µM
[18]; 120h incubation
  MIC: > 500 µM
[19]; read-out: MIC Mtb H37Ra, Middlebrook 7H9, resazurin, recalculated from µg/mL
  MIC: > 1850 µM
[20]; 24h incubation
  MIC: > 500 µM
[20]; 48h incubation
  MIC: > 500 µM
[21]; read-out: MIC M. avium, Middlebrook 7H9, resazurin
  MIC: > 1850 µM
[22]; 24h incubation
  MIC: > 500 µM
[22]; 48h incubation
  MIC: > 500 µM
[23]; 24h incubation
  MIC: > 500 µM
[23]; 48h incubation
  MIC: > 500 µM

## O=C(Nc1ccc2c(c1)B(O)OC2)c1cscn1 [Compound 16, N-(1-hydroxy-1,3-dihydrobenzo[c][1,2]oxaborol-6-yl)thiazole-4-carboxamide]
[1]; [24]
  MIC: 96.1 µM (≈ 25 µg/mL)
[2]; 24h incubation
  MIC: > 500 µM
[2]; 48h incubation
  MIC: > 500 µM
[3]; 24h incubation
  MIC: > 500 µM
[3]; 48h incubation
  MIC: > 500 µM
[4]; 24h incubation
  MIC: 500 µM (≈ 130 µg/mL)
[4]; 48h incubation
  MIC: > 500 µM
[5]
  MIC: 30 µM (≈ 7.81 µg/mL)
[6]; 48h incubation
  MIC Klebsiella pneumoniae: no inhibition
  MIC: > 500 µM
[6]; 24h incubation
  MIC: 500 µM (≈ 130 µg/mL)
[7]
  MIC: 30 µM (≈ 7.81 µg/mL)
[8]; 24h incubation
  MIC: > 500 µM
[8]; 48h incubation
  MIC: > 500 µM
[9]
  MIC: 15 µM (≈ 3.91 µg/mL)
[10]; 24h incubation
  MIC: > 500 µM
[10]; 48h incubation
  MIC: > 500 µM
other
  melting point: 225.7 to 227.9 °C
[11]; 24h incubation
  MIC: > 500 µM
[11]; 48h incubation
  MIC: > 500 µM
[12]; 48h incubation
  MIC Escherichia coli: no inhibition
  MIC: > 500 µM
[12]; 24h incubation
  MIC: 500 µM (≈ 130 µg/mL)
[13]; 24h incubation
  MIC: > 500 µM
[13]; 48h incubation
  MIC: > 500 µM
[14]; 24h incubation
  MIC: > 500 µM
[14]; 48h incubation
  MIC: > 500 µM
[15]; 24 h
  MIC: 250 µM (≈ 65 µg/mL)
[15]; 48 h
  MIC: 500 µM (≈ 130 µg/mL)
[16]; 24h incubation
  MIC: > 500 µM
[16]; 48h incubation
  MIC: > 500 µM
[17]
  pIC50: < 3.00
[18]; 72h incubation
  MIC: > 500 µM
[18]; 120h incubation
  MIC: > 500 µM
[19]; [25]
  MIC: 120 µM (≈ 31.3 µg/mL)
[20]; 24h incubation
  MIC: 125 µM (≈ 32.5 µg/mL)
[20]; 48h incubation
  MIC: 125 µM (≈ 32.5 µg/mL)
[21]; [26]
  MIC: 240 µM (≈ 62.5 µg/mL)
[22]; 24h incubation
  MIC: > 500 µM
[22]; 48h incubation
  MIC: > 500 µM
[23]; 24h incubation
  MIC: > 500 µM
[23]; 48h incubation
  MIC: > 500 µM

## O=C(Nc1ccc2c(c1)B(O)OC2)c1cnccn1 [Compound 1, N-(1-hydroxy-1,3-dihydrobenzo[c][1,2]oxaborol-6-yl)pyrazine-2-carboxamide]
[1]; [24]
  MIC: 49 µM (≈ 12.5 µg/mL)
[2]; 24h incubation
  MIC: > 500 µM
[2]; 48h incubation
  MIC: > 500 µM
[3]; 24h incubation
  MIC: > 500 µM
[3]; 48h incubation
  MIC: > 500 µM
[4]; 24h incubation
  MIC: 500 µM (≈ 128 µg/mL)
[4]; 48h incubation
  MIC: 500 µM (≈ 128 µg/mL)
[5]
  MIC: 30.6 µM (≈ 7.81 µg/mL)
[6]; 24h incubation
  MIC: > 500 µM
[6]; 48h incubation
  MIC: > 500 µM
[7]
  MIC: 30.6 µM (≈ 7.81 µg/mL)
[8]; 24h incubation
  MIC: > 500 µM
[8]; 48h incubation
  MIC: > 500 µM
[9]
  MIC: 15.3 µM (≈ 3.91 µg/mL)
[10]; 24h incubation
  MIC: > 500 µM
[10]; 48h incubation
  MIC: > 500 µM
other
  melting point: 261.3 to 262.3 °C
[11]; 24h incubation
  MIC: > 500 µM
[11]; 48h incubation
  MIC: > 500 µM
[12]; 24h incubation
  MIC: > 500 µM
[12]; 48h incubation
  MIC: > 500 µM
[13]; 24h incubation
  MIC: > 500 µM
[13]; 48h incubation
  MIC: > 500 µM
[14]; 24h incubation
  MIC: > 500 µM
[14]; 48h incubation
  MIC: > 500 µM
[15]; 24 h
  MIC: 500 µM (≈ 128 µg/mL)
[15]; 48 h
  MIC: 500 µM (≈ 128 µg/mL)
[16]; 24h incubation
  MIC: > 500 µM
[16]; 48h incubation
  MIC: > 500 µM
[17]
  pIC50: < 3.00
[18]; 72h incubation
  MIC: > 500 µM
[18]; 120h incubation
  MIC: > 500 µM
[19]; [25]
  MIC: 123 µM (≈ 31.3 µg/mL)
[20]; 24h incubation
  MIC: 250 µM (≈ 63.8 µg/mL)
[20]; 48h incubation
  MIC: 250 µM (≈ 63.8 µg/mL)
[21]; [26]
  MIC: 123 µM (≈ 31.3 µg/mL)
[22]; 24h incubation
  MIC: > 500 µM
[22]; 48h incubation
  MIC: > 500 µM
[23]; 24h incubation
  MIC: > 500 µM
[23]; 48h incubation
  MIC: > 500 µM
